Mutagenic call and call data for 16 compounds are collected here from PubChem BioAssay AID1259408 (Genetic Toxicology Data Bank (GENE-TOX), 2018).

Activity calls are given as the source filed them. No rule for the calls is given here.

In this data set the test system is GENE-TOX genotoxicity assays, various organisms and cells. Description: GENE-TOX mutagenicity studies. The following applies: for call: Assay Type: In vivo carcinogenicity studies, Assay Code: CCG+.
Where [1] appears, read: Species/Cell Type: Drosophila melanogaster, Assay Type: Sex-linked recessive lethal gene mutation, Assay Code: SRL+, Evaluation Type: Evaluation A (Pre-1980).
[2] abbreviates: Species/Cell Type: Escherichia coli polA (W3119 vs P3478), Assay Type: Rec-assay, DNA effects (bacterial DNA repair), Assay Code: RE1+, Evaluation Type: Evaluation A (Pre-1980).
Setting [3] is: Species/Cell Type: Mammalian polychromatic erythrocytes, Assay Type: Micronucleus test, chromosome aberrations, Assay Code: MNTT, Evaluation Type: Evaluation A (Pre-1980).
[4] abbreviates: Species/Cell Type: Neurospora crassa, Assay Type: Forward gene mutation, Assay Code: NEF+, Evaluation Type: Evaluation A (Pre-1980).
Where [5] appears, read: Species/Cell Type: Neurospora crassa, Assay Type: Reverse gene mutation, Assay Code: NER+, Evaluation Type: Evaluation A (Pre-1980).
The mark [6] stands for this setting: Species/Cell Type: Nonhuman, Evaluation Type: Evaluation A (Pre-1980).
Where [7] appears, read: Species/Cell Type: Salmonella typhimurium (one or more of the five standard strains: TA98, TA100, TA1535, TA1537, and TA1538), Assay Type: Histidine reverse gene mutation, Ames assay, Assay Code: SAL+, Evaluation Type: Evaluation A (Pre-1980).
[8] abbreviates: Species/Cell Type: Schizosaccharomyces pombe, Assay Type: Forward gene mutation, Assay Code: YEY+, Evaluation Type: Evaluation A (Pre-1980).
The mark [9] stands for this setting: Species/Cell Type: Schizosaccharomyces pombe, Assay Type: Reverse gene mutation, Assay Code: YEZ+, Evaluation Type: Evaluation A (Pre-1980).
Setting [10] is: Species/Cell Type: Salmonella typhimurium (one or more of the five standard strains: TA98, TA100, TA1535, TA1537, and TA1538), Assay Type: Histidine reverse gene mutation, Ames assay, Assay Code: SALT, Evaluation Type: Evaluation A (Pre-1980).
Setting [11] is: Species/Cell Type: Syrian hamster embryo (SHE) cells, Assay Type: Cell transformation, clonal assay, Assay Code: CTC+, Evaluation Type: Evaluation A (Pre-1980).
Where [12] appears, read: Species/Cell Type: Salmonella typhimurium (one or more of the five standard strains: TA98, TA100, TA1535, TA1537, and TA1538), Assay Type: Histidine reverse gene mutation, Ames assay, Assay Code: SAL+*, Activation: With metabolic activation, Evaluation Type: Evaluation A (Pre-1980).

`ClCC1CO1` (stereo not drawn): the mutagenic call by setting is: under setting [1], “active; positive”; under setting [2], “active; positive”; (Species/Cell Type: Human lymphocytes or leukocytes, Assay Type: Chromosome aberrations in vitro, Assay Code: CY7+, Evaluation Type: Evaluation A (Pre-1980)) “active; positive”; (Species/Cell Type: Human lymphocytes or leukocytes, Assay Type: Chromosome aberrations in vivo, Assay Code: CY8+, Evaluation Type: Evaluation A (Pre-1980)) “active; positive”; (Species/Cell Type: Human lymphocytes, Assay Type: Sister-chromatid exchange (SCE) in vitro, Assay Code: SCL+D, Dose Response: With dose response, Evaluation Type: Evaluation B (Post-1980)) “active; positive”; (Species/Cell Type: Human, Assay Type: Sister-chromatid exchange (SCE) in vitro, Assay Code: SC1+D, Dose Response: With dose response, Evaluation Type: Evaluation B (Post-1980)) “active; positive”. In addition, the mutagenic call was “inactive; negative” (Species/Cell Type: Human, Sex: Male, Assay Type: Sperm morphology, Assay Code: SPH-, Evaluation Type: Evaluation A (Pre-1980)); “no conclusion” under setting [3]; “inactive; negative” (Species/Cell Type: Mouse, Sex: Male, Assay Type: Sperm morphology, Assay Code: SPI-, Evaluation Type: Evaluation A (Pre-1980)); “active; positive” under setting [4]; “active; positive” under setting [5]; “active; positive” (Species/Cell Type: Nonhuman, Assay Type: Sister-chromatid exchange (SCE) in vitro, Assay Code: SC2+D, Dose Response: With dose response, Evaluation Type: Evaluation B (Post-1980)). Besides, the mutagenic call reads like this: under setting [7], “active; positive”; under setting [8], “active; positive”; under setting [9], “active; positive”. Moreover, the call under setting [6] is “active; positive”.
For the compound `CCN(C)N=O`, the call under setting [6] is “active; positive”. Under setting [10], the mutagenic call is recorded as “no conclusion”.
Take `OC1c2ccccc2-c2cc3ccccc3cc2C1O` (stereo not drawn): the mutagenic call is “inactive; negative” (Species/Cell Type: Chinese hamster lung (V79) cells, Assay Type: Forward gene mutation at the HPRT or ouabain locus, Assay Code: V79-*, Activation: With metabolic activation, Evaluation Type: Evaluation A (Pre-1980)); “inactive; negative” (Species/Cell Type: Chinese hamster lung (V79) cells, Assay Type: Forward gene mutation at the HPRT or ouabain locus, Assay Code: V79-, Evaluation Type: Evaluation A (Pre-1980)); “no conclusion” (Species/Cell Type: Drosophila melanogaster, Assay Type: Sex-linked recessive lethal gene mutation, Assay Code: SRLT, Evaluation Type: Evaluation A (Pre-1980)); “inactive; negative” (Species/Cell Type: Human diploid fibroblasts, Assay Type: Unscheduled DNA synthesis (UDS) in vitro, DNA effects, Assay Code: UDH-, Evaluation Type: Evaluation A (Pre-1980)); “inactive; negative” (Species/Cell Type: Mouse prostate cells, Assay Type: Cell transformation, Assay Code: CTM-, Evaluation Type: Evaluation A (Pre-1980)); “active; positive” under setting [11].
With `O=NO`, the mutagenic call (Species/Cell Type: Arabidopsis species, Assay Type: Gene mutation, Assay Code: ARMT, Evaluation Type: Evaluation A (Pre-1980)) is given as “no conclusion”; the mutagenic call (Species/Cell Type: Aspergillus nidulans, Assay Type: Forward gene mutation, Assay Code: ASF+, Evaluation Type: Evaluation A (Pre-1980)) is “active; positive”; the mutagenic call under setting [1] is “active; positive”; the mutagenic call under setting [2] is “active; positive”; the mutagenic call (Species/Cell Type: Human lymphocytes, Assay Type: Sister-chromatid exchange (SCE) in vitro, Assay Code: SCL+, Evaluation Type: Evaluation B (Post-1980)) was “active; positive”; the mutagenic call (Species/Cell Type: Human, Assay Type: Sister-chromatid exchange (SCE) in vitro, Assay Code: SC1+, Evaluation Type: Evaluation B (Post-1980)) was “active; positive”. Further, the mutagenic call by setting is: (Species/Cell Type: Mammalian oocytes or early embryo, Assay Type: Chromosome aberrations in vivo, Assay Code: CYO+, Evaluation Type: Evaluation A (Pre-1980)) “active; positive”; (Species/Cell Type: Mammalian polychromatic erythrocytes, Assay Type: Micronucleus test, chromosome aberrations, Assay Code: MNT+, Evaluation Type: Evaluation B (Post-1980)) “active; positive”; under setting [3], “no conclusion”; (Species/Cell Type: Mouse, Sex: Male, Assay Type: Heritable translocation test, chromosome aberrations, Assay Code: HTTT, Evaluation Type: Evaluation A (Pre-1980)) “no conclusion”; under setting [4], “active; positive”; under setting [5], “active; positive”. Also, the mutagenic call (Species/Cell Type: Nonhuman, Assay Type: Chromosome aberrations in vitro, Assay Code: CY&+D, Dose Response: With dose response, Evaluation Type: Evaluation A (Pre-1980)) is “active; positive”; the mutagenic call (Species/Cell Type: Nonhuman, Assay Type: Sister-chromatid exchange (SCE) in vitro, Assay Code: SC2+, Evaluation Type: Evaluation A (Pre-1980)) was “active; positive”; the mutagenic call (Species/Cell Type: Nonhuman, Assay Type: Sister-chromatid exchange (SCE) in vivo, Assay Code: SC3T, Evaluation Type: Evaluation B (Post-1980)) is recorded as “no conclusion”; the mutagenic call (Species/Cell Type: Rodents, Sex: Male, Assay Type: Dominant lethal test, Assay Code: DLT-, Evaluation Type: Evaluation A (Pre-1980)) is “inactive; negative”; the mutagenic call (Species/Cell Type: Saccharomyces cerevisiae, Assay Type: Forward gene mutation, Assay Code: YEF+, Evaluation Type: Evaluation A (Pre-1980)) is “active; positive”; the mutagenic call (Species/Cell Type: Saccharomyces cerevisiae, Assay Type: Mitotic recombination or gene conversion, Assay Code: YEC+, Evaluation Type: Evaluation A (Pre-1980)) is “active; positive”. Further, the mutagenic call runs as follows: (Species/Cell Type: Saccharomyces cerevisiae, Assay Type: Mitotic recombination or gene conversion, Assay Code: YEH+, Evaluation Type: Evaluation A (Pre-1980)) “active; positive”; (Species/Cell Type: Saccharomyces cerevisiae, Assay Type: Reverse gene mutation, Assay Code: YER+, Evaluation Type: Evaluation A (Pre-1980)) “active; positive”; under setting [7], “active; positive”; (Species/Cell Type: Salmonella typhimurium, Assay Type: Forward and reverse gene mutation, host-mediated assay, Assay Code: HMA-, Evaluation Type: Evaluation A (Pre-1980)) “inactive; negative”; under setting [8], “active; positive”; under setting [9], “active; positive”. The mutagenic call under setting [11] is “active; positive”.
Regarding `CCN(CCNc1ccc(CO)c2sc3ccccc3c(=O)c12)CC(C)(C)O`, the mutagenic call (Species/Cell Type: Mouse lymphoma (L5178Y) cells, Assay Type: Forward gene mutation at the thymidine kinase (TK) locus, chromosome aberrations, Assay Code: L51+, Evaluation Type: Evaluation A (Pre-1980)) was “active; positive”.
Take `O=C1CCCc2c1ccc1c2ccc2ccccc21`: under setting [12], the mutagenic call is “active; positive”.
Regarding `CCC[C@@H]1C[C@@H](C(=O)N[C@@H]([C@H]2O[C@H](SC)[C@H](O)[C@@H](O)[C@H]2O)[C@@H](C)O)N(C)C1`, for the setting “Species/Cell Type: Bacillus subtilis (H17 vs M45T), Assay Type: Rec-assay, spot test, DNA effects (bacterial DNA repair), Assay Code: REXT, Evaluation Type: Evaluation A (Pre-1980)”, the mutagenic call was “no conclusion”.
In the case of `COc1c2occc2c(OC)c2c(=O)cc(C)oc12`, the mutagenic call (Species/Cell Type: Human, Assay Type: Sister-chromatid exchange (SCE) in vitro, Assay Code: SC1T, Evaluation Type: Evaluation A (Pre-1980)) is listed as “no conclusion”.
As to `Cc1cc(O)c(C(C)C)cc1O`, the mutagenic call (Species/Cell Type: Allium cepa, Assay Type: Chromosome aberrations, Assay Code: ALC-, Evaluation Type: Evaluation A (Pre-1980)) was “inactive; negative”.
`CCCCCCCCCCCCCC(=O)ON(C(=O)CCCCCCCCCCCCC)c1ccc2c(c1)Cc1ccccc1-2`: the mutagenic call runs as follows: (Species/Cell Type: Human diploid fibroblasts, Assay Type: Unscheduled DNA synthesis (UDS) in vitro, DNA effects, Assay Code: UDH+, Evaluation Type: Evaluation A (Pre-1980)) “active; positive”; under setting [10], “no conclusion”.
Regarding `CC1CN(N=O)CC(C)N1N=O` (stereo not drawn), the mutagenic call under setting [12] is “active; positive”.
As to `[O]=[Zr]`, for the setting “Species/Cell Type: Nonhuman, Assay Type: Sister-chromatid exchange (SCE) in vitro, Assay Code: SC2-, Evaluation Type: Evaluation B (Post-1980)”, the mutagenic call is “inactive; negative”.
In the case of `CC(C(=O)O)c1ccc(N2CC=CC2)c(Cl)c1` (stereo not drawn), the mutagenic call (Species/Cell Type: Human lymphocytes, Assay Type: Sister-chromatid exchange (SCE) in vivo, Assay Code: SCY+, Evaluation Type: Evaluation B (Post-1980)) is “active; positive”.
On to `BrCc1c2ccccc2cc2ccccc12`, for which the mutagenic call under setting [7] is “active; positive”.
As for `CNC(=O)Oc1cccc2c1OC(C)(C)O2`, the mutagenic call (Species/Cell Type: Aspergillus nidulans, Assay Type: Aneuploidy, chromosome aberrations, Assay Code: ASN-, Evaluation Type: Evaluation A (Pre-1980)) is “inactive; negative”.
`C=C[C@H]1CN2CC[C@H]1C[C@H]2[C@H](O)c1ccnc2ccc(OC)cc12`: the mutagenic call (Species/Cell Type: Mammalian polychromatic erythrocytes, Assay Type: Micronucleus test, chromosome aberrations, Assay Code: MNT+U, Dose Response: Unconfirmed positive response, Evaluation Type: Evaluation B (Post-1980)) is “active; positive” and the mutagenic call (Species/Cell Type: Nonhuman, Assay Type: Sister-chromatid exchange (SCE) in vivo, Assay Code: SC3+D, Dose Response: With dose response, Evaluation Type: Evaluation B (Post-1980)) is “active; positive”.
